The data set can be described thus: TIMS collisional cross section (CCS, N2) of the lipid ion; higher = larger ion cross section. The note with it: ionization mode: negative, one isomer drawn. As for the experimental part: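 Lipid extracts of human plasma (NIST SRM 1950), mouse liver or HeLa cells were separated by nanoflow C18 LC (30 min gradient) and analysed by TIMS-PASEF on a timsTOF Pro. Ion mobility was calibrated with the Agilent tuning mix (negative mode ions) and converted to collisional cross sections (Mason–Schamp, N2).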

The mark [1] stands for this setting: sample type: Mouse Liver, ion (formula + adduct): [C43H74NO9P-H] 1-.
[2] abbreviates: sample type: Human plasma, ion (formula + adduct): [C43H78NO9P-H] 1-.
[3] abbreviates: sample type: Mouse Liver, ion (formula + adduct): [C43H78NO9P-H] 1-.
[4] abbreviates: sample type: Human plasma, ion (formula + adduct): [C45H78NO9P-H] 1-.

± gives the standard deviation of the averaged measurements.

Here are results for 31 compounds from the supplement of paper PMC6965134.
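Also: lipids from MTBE extraction, five replicate injections per sample, 100 ms TIMS ramp spanning 0.6–1.95 Vs/cm², lipid identity assigned from PASEF MS/MS spectra.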

For `CCCCCCCCCCCCCCCCCC(=O)OC[C@@H](O)COP(=O)(O)OC[C@@H](O)CO` [LPG 18:0_0:0], the “TIMS collisional cross section” value (sample type: Human plasma, ion (formula + adduct): [C24H49O9P-H] 1-) is 224.9 Å².
Turning to `CCCCCCCC/C=C\CCCCCCCC(=O)OC[C@@H](O)COP(=O)(O)OC[C@@H](O)CO` [LPG 18:1_0:0], the “TIMS collisional cross section” value (sample type: Mouse Liver, ion (formula + adduct): [C24H47O9P-H] 1-) was found to be 221.1 Å².
As to `CCCCCCCCCCCCCCCC(=O)OC[C@@H](O)COP(=O)(O)OC1C(O)C(O)C(O)[C@@H](O)C1O` (stereo partly specified) [LPI 16:0], the “TIMS collisional cross section” value (sample type: Mouse Liver, ion (formula + adduct): [C25H49O12P-H] 1-) came out at 232.6 Å².
For the compound `CCCCCC/C=C\CCCCCCCC(=O)OC[C@@H](O)COP(=O)(O)OC1[C@H](O)[C@H](O)C(O)[C@H](O)[C@H]1O` (stereo partly specified) [LPI 16:1_0:0], where the note is “sample type: Human plasma, ion (formula + adduct): [C25H47O12P-H] 1-”, the “TIMS collisional cross section” value is recorded as 230.2 Å².
Regarding `CCCCCCCCCCCCCCCCCC(=O)OC[C@@H](O)COP(=O)(O)OC1C(O)C(O)C(O)[C@@H](O)C1O` (stereo partly specified) [LPI 18:0_0:0], the “TIMS collisional cross section” value (sample type: Human plasma, ion (formula + adduct): [C27H53O12P-H] 1-) was found to be 239.4 Å².
As to `CCCCCCCC/C=C\CCCCCCCC(=O)OC[C@@H](O)COP(=O)(O)OC1[C@H](O)[C@H](O)C(O)[C@H](O)[C@H]1O` (stereo partly specified) [LPI 18:1_0:0], the “TIMS collisional cross section” value (sample type: Human plasma, ion (formula + adduct): [C27H51O12P-H] 1-) is listed as 238.3 Å².
For the compound `CC/C=C\C/C=C\C/C=C\C/C=C\CCCCC(=O)OC[C@@H](O)COP(=O)(O)OC1[C@H](O)[C@H](O)C(O)[C@H](O)[C@H]1O` (stereo partly specified) [LPI 18:4_0:0], the “TIMS collisional cross section” value (sample type: Mouse Liver, ion (formula + adduct): [C27H45O12P+AcO] 1-) was 244.9 Å².
Consider `CCCCC/C=C\C/C=C\C/C=C\CCCCCCC(=O)OC[C@@H](O)COP(=O)(O)OC1[C@H](O)[C@H](O)C(O)[C@H](O)[C@H]1O` (stereo partly specified) [LPI 20:3_0:0], for which the “TIMS collisional cross section” value (sample type: Human plasma, ion (formula + adduct): [C29H51O12P-H] 1-) is 240.4 Å².
Regarding `CCCCC/C=C\C/C=C\C/C=C\C/C=C\CCCC(=O)OC[C@@H](O)COP(=O)(O)OC1C(O)C(O)C(O)[C@@H](O)C1O` (stereo partly specified) [LPI 20:4_0:0], the “TIMS collisional cross section” value came to 239.9 Å² (sample type: Human plasma, ion (formula + adduct): [C29H49O12P-H] 1-) and 241 Å² (sample type: Mouse Liver, ion (formula + adduct): [C29H49O12P-H] 1-).
In the case of `CC/C=C\C/C=C\C/C=C\C/C=C\C/C=C\C/C=C\CCC(=O)OC[C@@H](O)COP(=O)(O)OC1[C@H](O)[C@H](O)C(O)[C@H](O)[C@H]1O` (stereo partly specified) [LPI 22:6_0:0], the “TIMS collisional cross section” value (sample type: Human plasma, ion (formula + adduct): [C31H49O12P-H] 1-) came out at 243.8 Å².
For the compound `CCCCCCCCCCCCCCCCCC(=O)OC[C@@H](O)COP(=O)(O)OC[C@H](N)C(=O)O` [LPS 18:0_0:0], the “TIMS collisional cross section” value (sample type: Mouse Liver, ion (formula + adduct): [C24H48NO9P-H] 1-) turned out to be 227.7 Å².
As for `CC/C=C\C/C=C\C/C=C\C/C=C\C/C=C\C/C=C\CCC(=O)OC[C@@H](O)COP(=O)(O)OC[C@H](N)C(=O)O` [LPS 22:6], the “TIMS collisional cross section” value (sample type: Mouse Liver, ion (formula + adduct): [C28H44NO9P-H] 1-) is recorded as 230.2 Å².
For the compound `CCCCC/C=C\C[C@H](O)/C=C/C=C\C/C=C\CCCC(=O)O[C@H](COC(=O)CCCCCCCCCCCCCCC)COP(=O)([O-])OCC[N+](C)(C)C` [Oxidized PC 16:0@_20:4], the “TIMS collisional cross section” value (sample type: Mouse Liver, ion (formula + adduct): [C44H80NO9P-CH3] 1-) stood at 281.3 Å².
On to `CCCCCCCCCCCCCCCC(=O)OC[C@H](COP(=O)([O-])OCC[N+](C)(C)C)OC(=O)CCCC(=O)O` [Oxidized PC 16:0_5:0], for which the “TIMS collisional cross section” value (sample type: Mouse Liver, ion (formula + adduct): [C29H56NO10P-CH3] 1-) was found to be 240.1 Å².
Consider `CCCCCCCCCCCCCCCC(=O)OC[C@H](COP(=O)([O-])OCC[N+](C)(C)C)OC(=O)CCCC=O` [Oxidized PC 16:0_5:0], for which the “TIMS collisional cross section” value reads like this: (sample type: Human plasma, ion (formula + adduct): [C29H56NO9P+HCOO] 1-) 255.5 Å²; (sample type: Mouse Liver, ion (formula + adduct): [C29H56NO9P+AcO] 1-) 258.4 Å².
For the compound `CCCCCCCCCCCCCCCC(=O)OC[C@H](COP(=O)([O-])OCC[N+](C)(C)C)OC(=O)CCCCCCCC(=O)O` [Oxidized PC 16:0_9:0@], for the setting “sample type: Mouse Liver, ion (formula + adduct): [C33H64NO10P-CH3] 1-”, the “TIMS collisional cross section” value is reported as 255.5 Å².
As to `CCCCCCCCCCCCCCCC(=O)OC[C@H](COP(=O)([O-])OCC[N+](C)(C)C)OC(=O)CCCCCCCC=O` [Oxidized PC 16:0_9:0@], the “TIMS collisional cross section” value is, setting by setting: (sample type: Human plasma, ion (formula + adduct): [C33H64NO9P+HCOO] 1-) 267.18 ± 0.29 Å²; (sample type: Human plasma, ion (formula + adduct): [C33H64NO9P-CH3] 1-) 253.8 Å²; (sample type: Mouse Liver, ion (formula + adduct): [C33H64NO9P+HCOO] 1-) 267.1 ± 0.42 Å².
For `CCCCC/C=C\C[C@H](O)/C=C/C=C\C/C=C\CCCC(=O)O[C@H](COC(=O)CCCCCCCCCCCCCCC)COP(=O)([O-])OCC[N+](C)(C)C` [Oxidized PC 16:0_20:4], the “TIMS collisional cross section” value is, setting by setting: (sample type: Human plasma, ion (formula + adduct): [C44H80NO9P+HCOO] 1-) 296.77 ± 1.3 Å²; (sample type: Mouse Liver, ion (formula + adduct): [C44H80NO9P+HCOO] 1-) 295.67 ± 1.9 Å².
For `CCCCC/C=C\C[C@H](O)/C=C/C=C\C/C=C\CCCC(=O)O[C@H](COC(=O)CCCCCCCCCCCCCCCCC)COP(=O)([O-])OCC[N+](C)(C)C` [Oxidized PC 18:0_20:4], the “TIMS collisional cross section” value stood at 302.75 ± 1.5 Å² (sample type: Human plasma, ion (formula + adduct): [C46H84NO9P+HCOO] 1-) and 302.3 Å² (sample type: Mouse Liver, ion (formula + adduct): [C46H84NO9P+HCOO] 1-).
Regarding `CCCCC/C=C\C[C@H](O)/C=C/C=C\C/C=C\CCCC(=O)O[C@H](CO/C=C\CCCCCCCCCCCCCC)COP(=O)(O)OCCN` [Oxidized PE 16:0@_20:4], the “TIMS collisional cross section” value stood at 291.6 Å² (sample type: Human plasma, ion (formula + adduct): [C41H74NO8P+OAcO] 1-) and 274.77 ± 1.5 Å² (sample type: Human plasma, ion (formula + adduct): [C41H74NO8P-H] 1-).
As for `CC/C=C\C/C=C\CC(O)/C=C/C=C\C/C=C\C/C=C\CCC(=O)O[C@H](CO/C=C\CCCCCCCCCCCCCC)COP(=O)(O)OCCN` (stereo partly specified) [Oxidized PE 16:0@_22:6], the “TIMS collisional cross section” value (sample type: Human plasma, ion (formula + adduct): [C43H74NO8P-H] 1-) worked out at 277.4 Å².
In the case of `CC/C=C\C/C=C\CC(O)/C=C/C=C\C/C=C\C/C=C\CCC(=O)O[C@H](COC(=O)CCCCCCCCCCCCCCC)COP(=O)(O)OCCN` (stereo partly specified) [Oxidized PE 16:0@_22:6], the “TIMS collisional cross section” value under setting [1] turned out to be 279 Å².
The same measure, in the same setting: with `CC/C=C\C/C=C\CC(O)/C=C/C=C\C/C=C\C/C=C\CCC(=O)O[C@H](COC(=O)CCCCCCCCCCCCCCC)COP(=O)(O)OCCN` (stereo partly specified) [Oxidized PE 16:0_22:6@] the figure was 290.6 Å².
As to `CC/C=C\C/C=C\CC(O)/C=C/C=C\C/C=C\C/C=C\CCC(=O)O[C@H](COC(=O)CCCCCCCCCCCCCCC)COP(=O)(O)OCCN` (stereo partly specified) [Oxidized PE 16:0_22:6], the “TIMS collisional cross section” value is recorded as 277.85 ± 0.78 Å² (sample type: Human plasma, ion (formula + adduct): [C43H74NO9P-H] 1-) and 277.43 ± 0.71 Å² under setting [1].
On to `CCCCC/C=C\C[C@H](O)/C=C/C=C\C/C=C\CCCC(=O)O[C@H](CO/C=C\CCCCCCCCCCCCCCCC)COP(=O)(O)OCCN` [Oxidized PE 18:0@_20:4], for which, where the note is “sample type: Human plasma, ion (formula + adduct): [C43H78NO8P-H] 1-”, the “TIMS collisional cross section” value stood at 280.43 ± 1.2 Å².
Take `CCCCC/C=C\C[C@H](O)/C=C/C=C\C/C=C\CCCC(=O)O[C@H](COC(=O)CCCCCCCCCCCCCCCCC)COP(=O)(O)OCCN` [Oxidized PE 18:0@_20:4]: the “TIMS collisional cross section” value under setting [2] is recorded as 298.2 Å² and the “TIMS collisional cross section” value under setting [3] is 281.9 Å².
Take `CC/C=C\C/C=C\CC(O)/C=C/C=C\C/C=C\C/C=C\CCC(=O)O[C@H](COC(=O)CCCCCCCCCCCCCCCCC)COP(=O)(O)OCCN` (stereo partly specified) [Oxidized PE 18:0@_22:6]: under setting [4], the “TIMS collisional cross section” value is given as 285.8 Å².
Take `CCCCC/C=C\C[C@H](O)/C=C/C=C\C/C=C\CCCC(=O)O[C@H](COC(=O)CCCCCCCCCCCCCCCCC)COP(=O)(O)OCCN` [Oxidized PE 18:0_20:4]: the “TIMS collisional cross section” value is on record as 282.5 Å² under setting [2] and 279 Å² under setting [3].
For `CC/C=C\C/C=C\CC(O)/C=C/C=C\C/C=C\C/C=C\CCC(=O)O[C@H](COC(=O)CCCCCCCCCCCCCCCCC)COP(=O)(O)OCCN` (stereo partly specified) [Oxidized PE 18:0_22:6@], the “TIMS collisional cross section” value under setting [4] was 287 Å².
Consider `CC/C=C\C/C=C\CC(O)/C=C/C=C\C/C=C\C/C=C\CCC(=O)O[C@H](COC(=O)CCCCCCCCCCCCCCCCC)COP(=O)(O)OCCN` (stereo partly specified) [Oxidized PE 18:0_22:6], for which, under setting [4], the “TIMS collisional cross section” value is 284.6 Å².
In the case of `CCCCC/C=C\C[C@H](O)/C=C/C=C\C/C=C\CCCC(=O)O[C@H](CO/C=C\CCCCCC/C=C\CCCCCCCC)COP(=O)(O)OCCN` [Oxidized PE 18:1@_20:4], the “TIMS collisional cross section” value (sample type: Human plasma, ion (formula + adduct): [C43H76NO8P-H] 1-) is reported as 279.7 Å².
